# Measured values from patent publication US10681909B2, “Herbicidal triazoles” (FMC Corporation, priority 2014, dated 2020).
# Key:
# barnyardgrass [1] = assay: Test A preemergence; type: in vivo, Echinochloa crus-galli; details: 0 to 100 scale (0 no effect, 100 complete control)
# How it was run: (§1)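 Pre- and postemergence spray tests in a loam soil–sand mixture: seeded soil received a directed spray, while established seedlings 2–10 cm high at the one- to two-leaf stage were treated over the top. Compounds were carried in non-phytotoxic solvent with surfactant.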
# crabgrass, large [2] = assay: Test A preemergence; type: in vivo, Digitaria sanguinalis; details: 0 to 100 scale (0 no effect, 100 complete control)
# Description: (§2) Seeds of plant species selected from barnyardgrass (Echinochloa crus-galli), crabgrass, large (large crabgrass, Digitaria sanguinalis), kochia (Kochia scoparia), ragweed (common ragweed, Ambrosia elatior), foxtail, giant (giant foxtail, Setaria faberii), morningglory (Ipomoea spp.), pigweed (Amaranthus retroflexus), velvetleaf (Abutilon theophrasti), ryegrass, Italian (Italian ryegrass, Lolium multiflorum), wheat (Triticum aestivum), and corn (Zea mays) were planted into a blend of loam soil and sand and treated preemergence with a directed soil spray using test chemicals formulated in a non-phytotoxic solvent mixture which included a surfactant. At the same time, plants selected from these crop and weed species and also blackgrass (Alopecurus myosuroides), and galium (catchweed bedstraw, Galium aparine), were planted in pots containing the same blend of loam soil and sand and treated with postemergence applications of test chemicals formulated in the same manner. Plants ranged in height from 2 to 10 cm and were in the one- to two-leaf stage for the postemergence treatment. […] A dash (-) response means no test result.
# foxtail, giant [3] = assay: Test A preemergence; type: in vivo, Setaria faberii; details: 0 to 100 scale (0 no effect, 100 complete control)
# How it was run: as §1
# morningglory [4] = assay: Test A preemergence; type: in vivo, Ipomoea spp.; details: 0 to 100 scale (0 no effect, 100 complete control)
# Description: as §2
# pigweed [5] = assay: Test A preemergence; type: in vivo, Amaranthus retroflexus; details: 0 to 100 scale (0 no effect, 100 complete control)
# How it was run: as §1
# velvetleaf [6] = assay: Test A preemergence; type: in vivo, Abutilon theophrasti; details: 0 to 100 scale (0 no effect, 100 complete control)
# Description: as §2
# wheat [7] = assay: Test A preemergence; type: in vivo, Triticum aestivum; details: 0 to 100 scale (0 no effect, 100 complete control)
# Description: as §2
# corn [8] = assay: Test A preemergence; type: in vivo, Zea mays; details: 0 to 100 scale (0 no effect, 100 complete control)
# Description: as §2
# barnyardgrass [9] = assay: Test A postemergence; type: in vivo, Echinochloa crus-galli; details: 0 to 100 scale (0 no effect, 100 complete control), approx. 10 d
# How it was run: as §1
# crabgrass, large [10] = assay: Test A postemergence; type: in vivo, Digitaria sanguinalis; details: 0 to 100 scale (0 no effect, 100 complete control), approx. 10 d
# Description: as §2
# foxtail, giant [11] = assay: Test A postemergence; type: in vivo, Setaria faberii; details: 0 to 100 scale (0 no effect, 100 complete control), approx. 10 d
# How it was run: as §1
# morningglory [12] = assay: Test A postemergence; type: in vivo, Ipomoea spp.; details: 0 to 100 scale (0 no effect, 100 complete control), approx. 10 d
# Description: as §2
# pigweed [13] = assay: Test A postemergence; type: in vivo, Amaranthus retroflexus; details: 0 to 100 scale (0 no effect, 100 complete control), approx. 10 d
# How it was run: as §1
# velvetleaf [14] = assay: Test A postemergence; type: in vivo, Abutilon theophrasti; details: 0 to 100 scale (0 no effect, 100 complete control), approx. 10 d
# Description: as §2
# wheat [15] = assay: Test A postemergence; type: in vivo, Triticum aestivum; details: 0 to 100 scale (0 no effect, 100 complete control), approx. 10 d
# How it was run: as §1
# corn [16] = assay: Test A postemergence; type: in vivo, Zea mays; details: 0 to 100 scale (0 no effect, 100 complete control), approx. 10 d
# How it was run: as §1
# rice = assay: Test B flooded paddy test; type: in vivo, Oryza sativa; details: applied to paddy water at 2-leaf stage, visual rating after 13 to 15 d, scale 0 (no effect) to 100 (complete control)
# Description: (§3) At time of treatment, test pots were flooded to 3 cm above the soil surface, treated by application of test compounds directly to the paddy water, and then maintained at that water depth for the duration of the test. Treated plants and controls were maintained in a greenhouse for 13 to 15 d, after which time all species were compared to controls and visually evaluated. […] A dash (-) response means no test result.
# sedge, umbrella = assay: Test B flooded paddy test; type: in vivo, Cyperus difformis; details: applied to paddy water at 2-leaf stage, visual rating after 13 to 15 d, scale 0 (no effect) to 100 (complete control)
# Description: as §3
# ducksalad = assay: Test B flooded paddy test; type: in vivo, Heteranthera limosa; details: applied to paddy water at 2-leaf stage, visual rating after 13 to 15 d, scale 0 (no effect) to 100 (complete control)
# Description: as §3
# barnyardgrass [17] = assay: Test B flooded paddy test; type: in vivo, Echinochloa crus-galli; details: applied to paddy water at 2-leaf stage, visual rating after 13 to 15 d, scale 0 (no effect) to 100 (complete control)
# Description: as §3
smiles,measurement,setting,value
Cc1nc(-c2ccc(C(F)(F)F)cc2)nn1Cc1ccnc(C(F)(F)F)c1 [Compound 7],"Plant response rating, Barnyardgrass",barnyardgrass [1]; 125 g ai/ha,20
same,"Plant response rating, Barnyardgrass","barnyardgrass [1]; 500 g ai/ha, approx. 10 d",80
same,"Plant response rating, Crabgrass, Large","crabgrass, large [2]; 125 g ai/ha",90
same,"Plant response rating, Crabgrass, Large","crabgrass, large [2]; 500 g ai/ha, approx. 10 d",100
same,"Plant response rating, Foxtail, Giant","foxtail, giant [3]; 125 g ai/ha",80
same,"Plant response rating, Foxtail, Giant","foxtail, giant [3]; 500 g ai/ha, approx. 10 d",100
same,"Plant response rating, Morningglory",morningglory [4]; 125 g ai/ha,10
same,"Plant response rating, Morningglory","morningglory [4]; 500 g ai/ha, approx. 10 d",60
same,"Plant response rating, Pigweed",pigweed [5]; 125 g ai/ha,90
same,"Plant response rating, Pigweed","pigweed [5]; 500 g ai/ha, approx. 10 d",100
same,"Plant response rating, Velvetleaf",velvetleaf [6]; 125 g ai/ha,20
same,"Plant response rating, Velvetleaf","velvetleaf [6]; 500 g ai/ha, approx. 10 d",70
same,"Plant response rating, Wheat",wheat [7]; 125 g ai/ha,0
same,"Plant response rating, Wheat","wheat [7]; 500 g ai/ha, approx. 10 d",10
same,"Plant response rating, Corn",corn [8]; 125 g ai/ha,10
same,"Plant response rating, Corn","corn [8]; 500 g ai/ha, approx. 10 d",10
same,"Plant response rating, Barnyardgrass",barnyardgrass [9]; 125 g ai/ha,40
same,"Plant response rating, Barnyardgrass",barnyardgrass [9]; 500 g ai/ha,80
same,"Plant response rating, Crabgrass, Large","crabgrass, large [10]; 125 g ai/ha",50
same,"Plant response rating, Crabgrass, Large","crabgrass, large [10]; 500 g ai/ha",90
same,"Plant response rating, Foxtail, Giant","foxtail, giant [11]; 125 g ai/ha",60
same,"Plant response rating, Foxtail, Giant","foxtail, giant [11]; 500 g ai/ha",90
same,"Plant response rating, Morningglory",morningglory [12]; 125 g ai/ha,50
same,"Plant response rating, Morningglory",morningglory [12]; 500 g ai/ha,80
same,"Plant response rating, Pigweed",pigweed [13]; 125 g ai/ha,100
same,"Plant response rating, Pigweed",pigweed [13]; 500 g ai/ha,100
same,"Plant response rating, Velvetleaf",velvetleaf [14]; 125 g ai/ha,80
same,"Plant response rating, Velvetleaf",velvetleaf [14]; 500 g ai/ha,100
same,"Plant response rating, Wheat",wheat [15]; 125 g ai/ha,20
same,"Plant response rating, Wheat",wheat [15]; 500 g ai/ha,50
same,"Plant response rating, Corn",corn [16]; 125 g ai/ha,30
same,"Plant response rating, Corn",corn [16]; 500 g ai/ha,50
same,"Plant response rating, Rice, Flood",rice; 250 g ai/ha,0
same,"Plant response rating, Sedge, Umbrella, Flood","sedge, umbrella; 250 g ai/ha",85
same,"Plant response rating, Ducksalad, Flood",ducksalad; 250 g ai/ha,0
same,"Plant response rating, Barnyardgrass, Flood",barnyardgrass [17]; 250 g ai/ha,0
CCCn1nc(-c2ccc(F)cc2)nc1C(O)c1ccnc(C(F)(F)F)c1 (stereo not drawn) [Compound 16],"Plant response rating, Barnyardgrass",barnyardgrass [1]; 125 g ai/ha,0
same,"Plant response rating, Barnyardgrass","barnyardgrass [1]; 500 g ai/ha, approx. 10 d",80
same,"Plant response rating, Crabgrass, Large","crabgrass, large [2]; 125 g ai/ha",60
same,"Plant response rating, Crabgrass, Large","crabgrass, large [2]; 500 g ai/ha, approx. 10 d",100
same,"Plant response rating, Foxtail, Giant","foxtail, giant [3]; 125 g ai/ha",50
same,"Plant response rating, Foxtail, Giant","foxtail, giant [3]; 500 g ai/ha, approx. 10 d",90
same,"Plant response rating, Morningglory",morningglory [4]; 125 g ai/ha,0
same,"Plant response rating, Morningglory","morningglory [4]; 500 g ai/ha, approx. 10 d",20
same,"Plant response rating, Pigweed",pigweed [5]; 125 g ai/ha,80
same,"Plant response rating, Pigweed","pigweed [5]; 500 g ai/ha, approx. 10 d",100
same,"Plant response rating, Velvetleaf",velvetleaf [6]; 125 g ai/ha,0
same,"Plant response rating, Velvetleaf","velvetleaf [6]; 500 g ai/ha, approx. 10 d",20
same,"Plant response rating, Wheat",wheat [7]; 125 g ai/ha,0
same,"Plant response rating, Wheat","wheat [7]; 500 g ai/ha, approx. 10 d",0
same,"Plant response rating, Corn",corn [8]; 125 g ai/ha,0
same,"Plant response rating, Corn","corn [8]; 500 g ai/ha, approx. 10 d",0
same,"Plant response rating, Barnyardgrass",barnyardgrass [9]; 125 g ai/ha,0
same,"Plant response rating, Barnyardgrass",barnyardgrass [9]; 500 g ai/ha,70
same,"Plant response rating, Crabgrass, Large","crabgrass, large [10]; 125 g ai/ha",20
same,"Plant response rating, Crabgrass, Large","crabgrass, large [10]; 500 g ai/ha",70
same,"Plant response rating, Foxtail, Giant","foxtail, giant [11]; 125 g ai/ha",30
same,"Plant response rating, Foxtail, Giant","foxtail, giant [11]; 500 g ai/ha",70
same,"Plant response rating, Morningglory",morningglory [12]; 125 g ai/ha,40
same,"Plant response rating, Morningglory",morningglory [12]; 500 g ai/ha,40
same,"Plant response rating, Pigweed",pigweed [13]; 125 g ai/ha,100
same,"Plant response rating, Pigweed",pigweed [13]; 500 g ai/ha,100
same,"Plant response rating, Velvetleaf",velvetleaf [14]; 125 g ai/ha,0
same,"Plant response rating, Velvetleaf",velvetleaf [14]; 500 g ai/ha,40
same,"Plant response rating, Wheat",wheat [15]; 125 g ai/ha,10
same,"Plant response rating, Wheat",wheat [15]; 500 g ai/ha,30
same,"Plant response rating, Corn",corn [16]; 125 g ai/ha,10
same,"Plant response rating, Corn",corn [16]; 500 g ai/ha,50
same,"Plant response rating, Rice, Flood",rice; 125 g ai/ha,0
same,"Plant response rating, Sedge, Umbrella, Flood","sedge, umbrella; 125 g ai/ha",0
same,"Plant response rating, Ducksalad, Flood",ducksalad; 125 g ai/ha,0
same,"Plant response rating, Barnyardgrass, Flood",barnyardgrass [17]; 125 g ai/ha,0
